# In article PMC9920413, “New Bicyclic Pyridine-Based Hybrids Linked to the 1,2,3-Triazole Unit: Synthesis via Click Reaction and Evaluation of Neurotropic Activity and Molecular Docking” (Molecules, 2023):
# Where “and” joins values, the source holds several entries; their conditions need not be identical. Equal values may be shown once.
# Key:
# [1] = system: pentylenetetrazole (PTZ)-induced convulsions; test: Antagonism to pentylenetetrazole (PTZ) convulsions; assay type: in vivo; conditions: for ED50 (by PTZ antagonism) / ED50: mice, i.p. 45 min before PTZ 90 mg/kg s.c., confidence limits in brackets, p = 0.05; for TI: therapeutic index TI = LD50/ED50; for ED50: Mus musculus, read-out: ED50 (by PTZ antagonism)
# Experimental: (§1) The study of the anticonvulsant activity of hybrids 7a–u was assessed by evaluating the antagonism to pentylenetetrazole (PTZ), thiosemicarbazide convulsive seizures, and maximal electroshock-induced seizures (MES). The PTZ-induced test is considered an experimental model for the clonic component of epilepsy seizures and the prognostic anxiolytic activity of the compounds. PTZ is a common convulsive agent used in animal models to investigate the mechanisms of seizures. The model of thiosemicarbazide (TSC) seizures (affecting the exchange of GABA) causes clonic seizures similar to pentylenetetrazole ones. The MES test is used as an animal model for the generalization of tonic seizures in epilepsy. The neurotoxicity and side effects of the compounds (movement coordination disorder, myorelaxation, and ataxia) were also studied on mice with the “rotating rod”[29] test.
# The anticonvulsant effect of the newly synthesized compounds was investigated by tests comprising pentylenetetrazole, thiosemicarbazide convulsions, and maximal electroshock (MES). Outbred mice (weight 18–22 g) were used for the study. […] Each animal is placed into an individual plastic cage for observation lasting 1 h. Seizures and clonic convulsions were recorded. […] The control animals were administered as an emulsifier. Every dose of each test compound was studied in six animals.
# (§2) Adverse neurotoxic (muscle relaxant) effects of compounds were studied at doses of 50 to 500 mg/kg when administered intraperitoneally, as well as reference drugs in effect at anticonvulsant doses. Myorelaxation was investigated with the test of a “rotating rod” in mice. To this end, mice were planted on a metal rod with a corrugated rubber coating, which rotated at a speed of 5 revolutions per minute. The number of animals that cnot stay on it for 2 min was determined. To determine the ED50, neurotoxic TD50, and LD50, the statistical method of penetration by Litchfield and Wilcoxon was used.
# mice [2] = test: Rotating rod test (neurotoxicity, myorelaxation); assay type: in vivo; conditions: i.p., myorelaxation in 50% of animals
# Experimental: as §1, §2
# mice [3] = test: in vivo; conditions: dead animals after 24 h
# Experimental: as §2
# [4] = system: thiosemicarbazide (TSC)-induced convulsions; test: Thiosemicarbazide (TSC) seizures; assay type: in vivo, mice; conditions: mice; for Latency of Convulsions, Induced by TSC, M ± M: compound 100 mg/kg i.p. 45 min before TSC 18 mg/kg s.c.; for Latency of Convulsions, Induced by TSC, I (index of latent period of TSC seizures) / response vs control in vivo at 100 mg/kg: compound 100 mg/kg i.p., relative to control = 1.0; for response vs control in vivo at 100 mg/kg: Mus musculus, ip, read-out: Latency of Convulsions, Induced by TSC, I (index of latent period of TSC seizures)
# Experimental: as §1
# Thiosemicarbazide, an antimetabolite of GABA inhibitor (glutamic acid decarboxylase) in the brain, is administered subcutaneously to mice at a dose of 18 mg/kg as a 0.5% solution, which causes clonic convulsions in animals. Anti-thiosemicarbazide activity was evaluated based on the latency time of the onset of seizures. Compounds were administered intraperitoneally at doses of 100 mg/kg in suspension with carboxymethylcellulose and Tween-80 45 min before administration of thiosemicarbazide.
# rats [5] = test: Open field test; assay type: in vivo; conditions: 50 mg/kg i.p.; for Cells Examination, amount (absolute data during 5 min): control 2.4 ± 0.67; for Vertical Displacement, amount (absolute data during 5 min): control 7.0 ± 2.14; for Horizontal Displacement, amount (absolute data during 5 min): control 21.6 ± 2.25
# Experimental: Open field test. The research-motor behavior of rats was studied on a modified “open field” model. For this purpose, an installation was used, the bottom of which is divided into squares with holes (cells). Experiments were performed in the daytime with natural light. Within 5 min of the experiment, the indicators of sedative and activating behavior were determined, namely the number of horizontal movements, standing on the hind legs (vertical movements), and sniffing of the cells. The number of animals on this model was eight for each compound, control, and reference drug.
# mouse = test: Elevated plus maze (EPM) test; assay type: in vivo; conditions: 50 mg/kg i.p., 5 min; for Number of Entries into the Closed Arms: control 9.4 ± 1.6; for Time Spent in the Center: control 28.2 ± 3.12; for Time Spent in Closed Arms: control 269.2 ± 10.4
# Source text: Elevated plus maze—EPM test. Anti-anxiety and sedative effects were studied on mouse a model of the “elevated plus maze”. The labyrinth is a cruciform machine raised above the floor, with a pair of open and closed sleeves opposed to each other. Normal animals prefer to spend most of their time in the closed (dark) sleeves of the labyrinth. The anxiolytic effect of the compounds was estimated by the increase in the number of entries into open (light) sleeves and the time spent in them without increasing the total motor activity. This records the time spent in the closed sleeve and the number of attempts to enter the installation center. In the above model, the test compounds and the reference drug were injected intraperitoneally before the experiments. The control animals were administered as an emulsifier. Results were processed statistically (p < 0.05).
# mice [6] = test: Forced swimming test; conditions: 50 mg/kg, 6 min; for Total Time of Immobilization: control 42.0 ± 7.24; for Total Time of Active Swimming: control 318.0 ± 8.36;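 on all read-outs here: mice made to swim in a water-filled glass vessel under natural light, with durations of active swimming and immobility recorded across the 6 min session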
# Experimental: Forced swimming test. To assess “despair and depression”, the “compelling swimming” model was used. Experimental animals were forced to swim in a glass container (height 22 cm, diameter 14 cm), filled 1/3 with water. […] The latent period of immobilization, the total duration of active swimming and immobilization are fixed at 6 min (the experiments were conducted under natural light).
# [7] = Rotating rod test (neurotoxicity, myorelaxation); assay type: in vivo; conditions: outbred, mouse, in vivo, ip, mice, myorelaxation in 50% of animals
# Experimental: as §1, §2
# in vivo = conditions: outbred, mouse, in vivo; mice, dead animals after 24 h
# Experimental: as §2
# rats [8] = test: Electroshock retrograde amnesia, conditioned response of passive avoidance (CRPA); assay type: in vivo; conditions: 50 mg/kg, study for 5 min; for The Time Spent in the Light Chamber during the Training of the CRPA, First Day: control 280.0 ± 7.5; for The Time Spent in the Light Chamber When Playing CRPA + MESH after 24 h, Second Day: control 281.0 ± 6.1
# Experimental: Test for learning and memory. The antiamnesic properties of the compounds were studied using an electroshock amnesia model modified by J. Bures, O. Buresova. In rats, a conditioned passive avoidance reaction (CRPA) to a dark-light setting was developed, while the training of the animals with CRPA was recorded. The residence times in the light and dark compartments were recorded for 5 min (300 s). Then, in the dark compartment, the animal received a single current shock (0.4 mA) through the electrode floor (training). To obtain amnesia, a maximum electroconvulsive seizure is induced in animals (conducting a maximum electric current of 50 Hz for 0.2 s through corneal electrodes). Conducting an electric shock immediately after training causes the erasure of the memory trace. The test for reproduction is carried out 24 h after training—after the development of CRPA. During this period, the control animals forget the training and prefer to be in the dark part of the chamber. An increase in the time spent by rats in the light compartment compared to the control on the second day indicates the presence of antiamnestic properties of the compounds.
Compound,ED50 (by PTZ antagonism) [1],TI [1],TD50 (mice [2]),LD50 (mice [3]),"Latency of Convulsions, Induced by TSC, M ± M [4]","Cells Examination, amount (absolute data during 5 min) (rats [5])","Vertical Displacement, amount (absolute data during 5 min) (rats [5])","Horizontal Displacement, amount (absolute data during 5 min) (rats [5])",Time Spent in the Open Arms (mouse; control 2.6 ± 1.6),Number of Entries into the Closed Arms (mouse),Time Spent in the Center (mouse),Time Spent in Closed Arms (mouse),Total Time of Immobilization (mice [6]),Total Time of Active Swimming (mice [6]),ED50 [1],TD50 at 2 min [7],LD50 at 24 h (in vivo),response vs control in vivo at 100 mg/kg [4],"The Time Spent in the Light Chamber during the Training of the CRPA, First Day (rats [8])","The Time Spent in the Light Chamber When Playing CRPA + MESH after 24 h, Second Day (rats [8])",also measured
"6-{4-[(4-{[(4-Cyano-1-methyl-5,6,7,8-tetrahydroisoquinolin-3-yl)oxy]methyl}-1H-1,2,3-triazol-1-yl)acetyl]piperazin-1-yl}-3,3-dimethyl-1-propyl-3,4-dihydro-1H-pyrano [3,4-c]pyridine-5-carbonitrile [7f]",28 (22.2 ÷ 35.3) mg/kg,28.9,>500 mg/kg,810 (686 ÷ 956) mg/kg,40.6 ± 1.11 min,3.2 ± 1.03,10.8 ± 3.67,39.2 ± 4.92,16.0 ± 2.09 s,3.0 ± 0.89,22.0 ± 6.32 s,264.0 ± 13.48 s,66.0 ± 4.48 s,296.0 ± 16.85 s,–,–,–,–,–,–,"Latency of Convulsions, Induced by TSC, I (index of latent period of TSC seizures) [4]: 4.06"
"6-{4-[(4-{[(5-Cyano-3,3-dimethyl-8-propyl-3,4-dihydro-1H-pyrano [3,4-c]pyridin-6-yl)oxy]methyl}-1H-1,2,3-triazol-1-yl)acetyl]piperazin-1-yl}-1-ethyl-3,3-dimethyl-3,4-dihydro-1H-pyrano [3,4-c]pyridine-5-carbonitrile [7t]",30 (24.2 ÷ 42) mg/kg,25.6,>500 mg/kg,768 (640 ÷ 922) mg/kg,43.8 ± 4.34 min,2.6 ± 0.79,10.6 ± 3.84,46.0 ± 7.37,23.0 ± 5.51 s,1.6 ± 0.67,9.0 ± 2.2 s,268.0 ± 5.56 s,62.0 ± 6.77 s,298.0 ± 16.64 s,–,–,–,–,–,–,"Latency of Convulsions, Induced by TSC, I (index of latent period of TSC seizures) [4]: 4.38"
"Cc1nc(N2CCN(C(=O)Cn3cc(COc4nc(C(C)C)c5c(c4C#N)CCC5)nn3)CC2)c(C#N)c2c1COC(C)(C)C2 [7a, 6-{4-[(4-{[(4-Cyano-1-isopropyl-6,7-dihydro-5H-cyclopenta[c]pyridin-3-yl)oxy]methyl}-1H-1,2,3-triazol-1-yl)acetyl]piperazin-1-yl}-3,3,8-trimethyl-3,4-dihydro-1H-pyrano [3,4-c]pyridine-5-carbonitrile]",–,44.5,–,–,43.0 ± 5.2 min,8.6 ± 1.89,6.8 ± 3.42,44.4 ± 10.1,15.0 ± 2.1 s,5.6 ± 2.1,22.4 ± 3.99 s,262.6 ± 14.6 s,18.6 ± 3.2 s,341.4 ± 6.2 s,20 mg/kg,> 500 mg/kg,890 mg/kg,430%,286.0 ± 4.3 s,298.0 ± 6.9 s,–
"Cc1nc(N2CCN(C(=O)Cn3cc(COc4nc(-c5ccco5)c5c(c4C#N)CCCC5)nn3)CC2)c(C#N)c2c1COC(C)(C)C2 [7j, 6-(4-{[4-({[4-Cyano-1-(2-furyl)-5,6,7,8-tetrahydroisoquinolin-3-yl]oxy}methyl)-1H-1,2,3-triazol-1-yl]acetyl}piperazin-1-yl)-3,3,8-trimethyl-3,4-dihydro-1H-pyrano [3,4-c]pyridine-5-carbonitrile]",–,42.3,–,–,41.0 ± 3.95 min,9.8 ± 3.53,10 ± 3.39,54.6 ± 10.03,19.6 ± 3.5 s,5.9 ± 2.1,19.2 ± 4.15 s,261.2 ± 20.8 s,14.0 ± 3.37 s,346.0 ± 11.35 s,22 mg/kg,> 500 mg/kg,930 mg/kg,410%,293.0 ± 7.2 s,120.0 ± 5.8 s,–
"Cc1nc(OCc2cn(CC(=O)N3CCN(c4nc(C)c5c(c4C#N)CC(C)(C)OC5)CC3)nn2)c(C#N)c2c1COC(C)(C)C2 [7m, 6-{4-[(4-{[(5-Cyano-3,3,8-trimethyl-3,4-dihydro-1H-pyrano [3,4-c]pyridin-6-yl)oxy]methyl}-1H-1,2,3-triazol-1-yl)acetyl]piperazin-1-yl}-3,3,8-trimethyl-3,4-dihydro-1H-pyrano [3,4-c]pyridine-5-carbonitrile]",–,54.7,–,–,36.6 ± 1.11 min,13.4 ± 5.56,12 ± 3.95,59.8 ± 9.58,–,6.4 ± 1.11,48.8 ± 5.14 s,175.4 ± 6.23 s,5.0 ± 1.2 s,355.0 ± 5.0 s,15 mg/kg,> 500 mg/kg,820 mg/kg,366%,282.0 ± 6.8 s,296.0 ± 5.4 s,"Time Spent in the Open Arms (mouse; control 2.6 ± 1.6, 50 mg/kg): 66.4 s and 66.4 ± 7.78 s"
